In patent publication US20130052137A1, “PARA AMINO BENZOIC ACID BASED NANOTUBES” (priority 2009, published 2013) one finds melting point data, which are given here for 2 molecules.

In the case of `CCCCCCCCCCCCCCCCCC(=O)Nc1ccc(C(=O)Nc2ccccn2)cc1` [Compound 1b, N-(Pyridin-2-yl)-4-stearamidobenzamide], the melting point (in general, the temperature of the solid-liquid transition) lay within 140 to 142 °C.

For the molecule `CCCCCCCCCCCC(=O)Nc1ccc(C(=O)Nc2ccccn2)cc1` [Compound 1a, N-(Pyridine-2-yl)-4-dodecanamido-benzamide], the melting point was in the range of 152 to 154 °C.
